Experiments:
[1] = test system: C57BL/6 mice; experiment: In vivo expression level of Luciferase-mRNA delivered by intramuscular injection (bioluminescence imaging); conditions: mRNA-loaded nanoparticles, intramuscular (leg muscle), 5 μg Luciferase-mRNA, 6 hours
Method: Luciferase-mRNA was used as an mRNA model; and the cationic lipid analogues of Examples 1-5 were used to prepare drug-loaded nanoparticles according to the method of Example 6.
100 μL of nanoparticles containing 5 μg Luciferase-mRNA or the drug-loaded nanoparticles prepared above were injected into the leg muscles of 6-8 week-old C57BL/6 mice, and 200 μL of 1×PBS solution containing 3 mg D-Luciferin potassium salt was intraperitoneally injected into the mice 6 hours later. After waiting for 10 minutes, an in vivo expression level of the mRNA was evaluated by bioluminescence imaging.

[2] = test system: C57BL/6 mice; experiment: In vivo expression level of Luciferase-mRNA delivered by intravenous injection (bioluminescence imaging); conditions: mRNA-loaded nanoparticles, intravenous (tail vein), 5 μg Luciferase-mRNA, 6 hours; for Fluorescence intensity of liver / Bioluminescence intensity: compounds of Example 1
How it was run: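 Lipid nanoparticles carrying 5 μg Luciferase-mRNA given by tail-vein injection to 6-8-week-old C57BL/6 mice. At 6 h, 3 mg D-luciferin i.p. in PBS; bioluminescence imaged 10 min later as the expression read-out.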

Structure (SMILES) | Local fluorescence intensity ([1]; compounds of Example 3) | Fluorescence intensity of spleen ([2]; compounds of Example 3) | Local fluorescence intensity ([1]; compounds of Example 1) | further results
CCCCCCCCCCSSCCC(=O)N(CCCCCO)C(C(=O)NCCN(CCNC(=O)C(C(C)C)N(CCCCCO)C(=O)CCSSCCCCCCCCCC)CCNC(=O)C(C(C)C)N(CCCCCO)C(=O)CCSSCCCCCCCCCC)C(C)C (stereo not drawn) [A1I5R27S15] | 3.57E+05 | 7.96E+05 | – | –
CCCCCCCCCCSSCCC(=O)N(CCCCCCO)C(C(=O)NCCN(CCNC(=O)C(C(C)C)N(CCCCCCO)C(=O)CCSSCCCCCCCCCC)CCNC(=O)C(C(C)C)N(CCCCCCO)C(=O)CCSSCCCCCCCCCC)C(C)C (stereo not drawn) [A1I5R28S15] | 6.01E+05 | 3.31E+06 | – | –
CCCCCCCCCCSSCCC(=O)N(C(C(=O)NCCN(CCNC(=O)C(C(C)C)N(C(=O)CCSSCCCCCCCCCC)C(C)(CO)CO)CCNC(=O)C(C(C)C)N(C(=O)CCSSCCCCCCCCCC)C(C)(CO)CO)C(C)C)C(C)(CO)CO (stereo not drawn) [A1I5R29S15] | 7.63E+04 | 3.13E+05 | – | –
CCCCCCCCCCSSCCC(=O)N(C(C(=O)NCCN(CCNC(=O)C(C(C)C)N(C(=O)CCSSCCCCCCCCCC)C(CO)(CO)CO)CCNC(=O)C(C(C)C)N(C(=O)CCSSCCCCCCCCCC)C(CO)(CO)CO)C(C)C)C(CO)(CO)CO (stereo not drawn) [A1I5R30S15] | 7.77E+04 | 6.31E+04 | – | –
CCCCCCCCCCSSCCC(=O)N(CCCOCC)C(C(=O)NCCN(CCNC(=O)C(C(C)C)N(CCCOCC)C(=O)CCSSCCCCCCCCCC)CCNC(=O)C(C(C)C)N(CCCOCC)C(=O)CCSSCCCCCCCCCC)C(C)C (stereo not drawn) [A1I5R31S15] | 2.94E+06 | 6.13E+05 | – | –
CCCCCCCCCCSSCCC(=O)N(CCCOC(C)C)C(C(=O)NCCN(CCNC(=O)C(C(C)C)N(CCCOC(C)C)C(=O)CCSSCCCCCCCCCC)CCNC(=O)C(C(C)C)N(CCCOC(C)C)C(=O)CCSSCCCCCCCCCC)C(C)C (stereo not drawn) [A1I5R32S15] | 1.18E+06 | 2.48E+05 | – | –
CCCCCCCCCCSSCCC(=O)N(C(CC)COC)C(C(=O)NCCN(CCNC(=O)C(C(C)C)N(C(=O)CCSSCCCCCCCCCC)C(CC)COC)CCNC(=O)C(C(C)C)N(C(=O)CCSSCCCCCCCCCC)C(CC)COC)C(C)C (stereo not drawn) [A1I5R33S15] | 1.52E+06 | 2.33E+05 | – | –
CCCCCCCCCCSSCCC(=O)N(CC(OC)OC)C(C(=O)NCCN(CCNC(=O)C(C(C)C)N(CC(OC)OC)C(=O)CCSSCCCCCCCCCC)CCNC(=O)C(C(C)C)N(CC(OC)OC)C(=O)CCSSCCCCCCCCCC)C(C)C (stereo not drawn) [A1I5R34S15] | 1.24E+06 | 2.84E+05 | – | –
CCCCCCCCCCSSCCC(=O)N(CC1CCCO1)C(C(=O)NCCN(CCNC(=O)C(C(C)C)N(CC1CCCO1)C(=O)CCSSCCCCCCCCCC)CCNC(=O)C(C(C)C)N(CC1CCCO1)C(=O)CCSSCCCCCCCCCC)C(C)C (stereo not drawn) [A1I5R35S15] | 2.62E+06 | 3.21E+05 | – | –
CCCCCCCCCCSSCCC(=O)N(CCOCCO)C(C(=O)NCCN(CCNC(=O)C(C(C)C)N(CCOCCO)C(=O)CCSSCCCCCCCCCC)CCNC(=O)C(C(C)C)N(CCOCCO)C(=O)CCSSCCCCCCCCCC)C(C)C (stereo not drawn) [A1I5R36S15] | 8.27E+04 | 3.27E+06 | – | –
CCCCCCCCCCSSCCC(=O)N(CC(=O)OCC)C(C(=O)NCCN(CCNC(=O)C(C(C)C)N(CC(=O)OCC)C(=O)CCSSCCCCCCCCCC)CCNC(=O)C(C(C)C)N(CC(=O)OCC)C(=O)CCSSCCCCCCCCCC)C(C)C (stereo not drawn) [A1I5R37S15] | 1.26E+06 | 1.61E+05 | – | –
CCCCCCCCCCSSCCC(=O)N(CCCC(=O)OC)C(C(=O)NCCN(CCNC(=O)C(C(C)C)N(CCCC(=O)OC)C(=O)CCSSCCCCCCCCCC)CCNC(=O)C(C(C)C)N(CCCC(=O)OC)C(=O)CCSSCCCCCCCCCC)C(C)C (stereo not drawn) [A1I5R38S15] | 4.72E+04 | 1.14E+05 | – | –
CCCCCCCCCCSSCCC(=O)N(CCCC(=O)OCC)C(C(=O)NCCN(CCNC(=O)C(C(C)C)N(CCCC(=O)OCC)C(=O)CCSSCCCCCCCCCC)CCNC(=O)C(C(C)C)N(CCCC(=O)OCC)C(=O)CCSSCCCCCCCCCC)C(C)C (stereo not drawn) [A1I5R39S15] | 2.15E+04 | 3.88E+04 | – | –
CCCCCCCCCCSSCCC(=O)N(C(C)C(=O)OC)C(C(=O)NCCN(CCNC(=O)C(C(C)C)N(C(=O)CCSSCCCCCCCCCC)C(C)C(=O)OC)CCNC(=O)C(C(C)C)N(C(=O)CCSSCCCCCCCCCC)C(C)C(=O)OC)C(C)C (stereo not drawn) [A1I5R40S15] | 3.86E+05 | 1.39E+04 | – | –
CCCCCCCCCCSSCCC(=O)N(CS(=O)(=O)O)C(C(=O)NCCN(CCNC(=O)C(C(C)C)N(CS(=O)(=O)O)C(=O)CCSSCCCCCCCCCC)CCNC(=O)C(C(C)C)N(CS(=O)(=O)O)C(=O)CCSSCCCCCCCCCC)C(C)C (stereo not drawn) [A1I5R41S15] | 1.81E+05 | 4.22E+05 | – | –
CCCCCCCCCCCCNC(=O)C(C(C)C)N(CCN(CCN(C(=O)CO)C(C(=O)NCCCCCCCCCCCC)C(C)C)CCN(C(=O)CO)C(C(=O)NCCCCCCCCCCCC)C(C)C)C(=O)CO (stereo not drawn) [A1I12R47C21] | – | – | – | Local fluorescence intensity ([1]; compounds of Example 5): 2.22E+05; Fluorescence intensity of spleen ([2]; compounds of Example 5): 3.10E+05
CCCCC/C=C\C/C=C\CCCCCCCC(=O)N(CCCN(C)C)C(C(=O)NCCCCCCCCCCCCCCCCCC)C(C)C (stereo not drawn) [A1I18R2C18-2] | – | – | 7.88E+04 | Fluorescence intensity of liver [2]: 5.42E+04

Structure (SMILES) | Local fluorescence intensity ([1]; compounds of Example 3) | Fluorescence intensity of spleen ([2]; compounds of Example 3) | Local fluorescence intensity ([1]; compounds of Example 1) | further results
CCCCCCCCCCCCCCCCCCNC(=O)C(C(C)C)N(CCCN(C)C)C(=O)CCCCCCCCCCCCCCCCC (stereo not drawn) [A1I18R2C18] | – | – | 1.36E+05 | Fluorescence intensity of liver [2]: 2.26E+04
CCCCC/C=C\C/C=C\CCCCCCCC(=O)N(CCCN1CCOCC1)C(C(=O)NCCCCCCCCCCCCCCCCCC)C(C)C (stereo not drawn) [A1I18R5C18-2] | – | – | 8.15E+04 | Fluorescence intensity of liver [2]: 3.77E+03
CCCCCCCCCCCCCCCCCCNC(=O)C(C(C)C)N(CCCN1CCOCC1)C(=O)CCCCCCCCCCCCCCCCC (stereo not drawn) [A1I18R5C18] | – | – | 5.25E+04 | Fluorescence intensity of liver [2]: 1.16E+03
CCCCC/C=C\C/C=C\CCCCCCCC(=O)N(CCN1CCCCC1)C(C(=O)NCCCCCCCCCCCCCCCCCC)C(C)C (stereo not drawn) [A1I18R12C18-2] | – | – | 3.38E+06 | Fluorescence intensity of liver [2]: 1.41E+03
CCCCCCCCCCCCCCCCCCNC(=O)C(C(C)C)N(CCN1CCCCC1)C(=O)CCCCCCCCCCCCCCCCC (stereo not drawn) [A1I18R12C18] | – | – | 4.37E+04 | Bioluminescence intensity [2]: 9.34E+02
CCCCC/C=C\C/C=C\CCCCCCCC(=O)N(CCN(CCN(C(=O)CCCCCCC/C=C\C/C=C\CCCCC)C(C(=O)NCCOC)C(C)C)CCN(C(=O)CCCCCCC/C=C\C/C=C\CCCCC)C(C(=O)NCCOC)C(C)C)C(C(=O)NCCOC)C(C)C (stereo not drawn) [A1I31R47C18-2] | – | – | – | Local fluorescence intensity ([1]; compounds of Example 5): 2.24E+05; Fluorescence intensity of spleen ([2]; compounds of Example 5): 6.90E+04
CCCCCCCC/C=C\CCCCCCCC(=O)N(CCO)C(C(=O)NCCN(C)CCNC(=O)C(C(CC)CCCC)N(CCO)C(=O)CCCCCCC/C=C\CCCCCCCC)C(CC)CCCC (stereo not drawn) [A4I4R22C18-1] | – | – | – | Local fluorescence intensity ([1]; compounds of Example 2): 5.47E+05; Fluorescence intensity of spleen ([2]; compounds of Example 2): 6.82E+05
CCCCC/C=C\C/C=C\CCCCCCCC(=O)N(CCO)C(C(=O)NCCN(C)CCNC(=O)C(C(CC)CCCC)N(CCO)C(=O)CCCCCCC/C=C\C/C=C\CCCCC)C(CC)CCCC (stereo not drawn) [A4I4R22C18-2] | – | – | – | Local fluorescence intensity ([1]; compounds of Example 2): 4.66E+05; Fluorescence intensity of spleen ([2]; compounds of Example 2): 2.61E+05
CCCCCCCCCCCCCCCCCC(=O)N(CCO)C(C(=O)NCCN(C)CCNC(=O)C(C(CC)CCCC)N(CCO)C(=O)CCCCCCCCCCCCCCCCC)C(CC)CCCC (stereo not drawn) [A4I4R22C18] | – | – | – | Local fluorescence intensity ([1]; compounds of Example 2): 5.53E+05; Fluorescence intensity of spleen ([2]; compounds of Example 2): 5.51E+05
CCCCC/C=C\C/C=C\CCCCCCCC(=O)N(CCOC)C(C(=O)NCCN(C)CCNC(=O)C(C(CC)CCCC)N(CCOC)C(=O)CCCCCCC/C=C\C/C=C\CCCCC)C(CC)CCCC (stereo not drawn) [A4I4R23C18-2] | – | – | – | Local fluorescence intensity ([1]; compounds of Example 2): 1.93E+04; Fluorescence intensity of spleen ([2]; compounds of Example 2): 4.96E+05
CCCCCCCCCCCCCCCCCC(=O)N(CCOC)C(C(=O)NCCN(C)CCNC(=O)C(C(CC)CCCC)N(CCOC)C(=O)CCCCCCCCCCCCCCCCC)C(CC)CCCC (stereo not drawn) [A4I4R23C18] | – | – | – | Local fluorescence intensity ([1]; compounds of Example 2): 6.36E+04; Fluorescence intensity of spleen ([2]; compounds of Example 2): 2.16E+05
CCCCCCCC/C=C\CCCCCCCC(=O)N(CCN(C)C)C(C(=O)NCCCCCCCCCCCCCCCCCC)C(CC)CCCC (stereo not drawn) [A4I18R1C18-1] | – | – | 1.54E+07 | Bioluminescence intensity [2]: 1.39E+07
CCCCC/C=C\C/C=C\CCCCCCCC(=O)N(CCN(C)C)C(C(=O)NCCCCCCCCCCCCCCCCCC)C(CC)CCCC (stereo not drawn) [A4I18R1C18-2] | – | – | 2.11E+07 | Fluorescence intensity of liver [2]: 9.67E+06
CCCCCCCC/C=C\CCCCCCCC(=O)N(CCCN(C)C)C(C(=O)NCCCCCCCCCCCCCCCCCC)C(CC)CCCC (stereo not drawn) [A4I18R2C18-1] | – | – | 1.32E+07 | Bioluminescence intensity [2]: 1.33E+07
CCCCC/C=C\C/C=C\CCCCCCCC(=O)N(CCCN(C)C)C(C(=O)NCCCCCCCCCCCCCCCCCC)C(CC)CCCC (stereo not drawn) [A4I18R2C18-2] | – | – | 2.97E+07 | Bioluminescence intensity [2]: 2.06E+07
CCCCCCCCCCCCCCCCCCNC(=O)C(C(CC)CCCC)N(CCCN(C)C)C(=O)CCCCCCCCCCCCCCCCC (stereo not drawn) [A4I18R2C18] | – | – | 9.04E+05 | Fluorescence intensity of liver [2]: 5.05E+05
